Reference: US20250387400A1, “TYK2 INHIBITORS” (BIOGEN MA INC., priority 2022, published 2025)
Read-outs that look alike come from different tables or passages of the source.

What was measured:
Assay type in all cases: biochemical
[1] = target: T1, catalytic kinase (JH1) domain of human JAK2 (Homo sapiens, UniProt O60674); test: ADP-Glo kinase assay, JAK2 kinase domain
T1 construct: Catalytic activities of recombinant JAK2, JAK3 and TYK2 kinase domain
Procedure: (§1) As summarized in Table 3 below, compounds of the disclosure were assessed for their ability to inhibit TYK2, JAK1, JAK2, and JAK3 activity.
(§2) The kinase activity of recombinantly generated catalytic kinase (also known as JH1) domain of human JAK1, JAK2, JAK3 and TYK2 were evaluated in a plate-based assay using the ADP-Glo™ Kinase Assay platform. […] The reactions proceed for 100 minutes and the catalytic activity is quantified by first depleting the unused ATP, converting the hydrolyzed ADP into ATP to generate luminescence in a luciferase reaction; which is the basis of the ADP-Glo platform. Compounds are tested at either 10 μM or 1 μM top concentration, 11 points of 3-fold dilution. The data is normalized and the percent activity versus log concentration of compound is fitted with a 4-parameter logistic model to generate a curve and an IC50 value.

[2] = target: T2, catalytic kinase (JH1) domain of human JAK1 (Homo sapiens, UniProt P23458); test: ADP-Glo kinase assay, JAK1 kinase domain
T2 construct: 4 nM of recombinant JAK1 kinase domain is used to phosphorylate
T2 sequence (P23458 875-1153 limits assumed): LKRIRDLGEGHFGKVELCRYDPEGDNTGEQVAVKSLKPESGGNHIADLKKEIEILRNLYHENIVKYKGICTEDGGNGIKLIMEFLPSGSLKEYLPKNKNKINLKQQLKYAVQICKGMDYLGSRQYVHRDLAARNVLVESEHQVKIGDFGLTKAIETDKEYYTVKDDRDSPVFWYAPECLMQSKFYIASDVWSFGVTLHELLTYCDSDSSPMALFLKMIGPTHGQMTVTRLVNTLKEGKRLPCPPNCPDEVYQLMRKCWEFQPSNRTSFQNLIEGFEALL
Procedure: as §1, §2

[3] = target: T3, catalytic kinase (JH1) domain of human TYK2 (Homo sapiens, UniProt P29597); test: ADP-Glo kinase assay, TYK2 kinase domain
T3 construct: recombinantly generated catalytic kinase (also known as JH1) domain of human JAK1, JAK2, JAK3 and TYK2
T3 sequence (P29597 897-1176 limits assumed): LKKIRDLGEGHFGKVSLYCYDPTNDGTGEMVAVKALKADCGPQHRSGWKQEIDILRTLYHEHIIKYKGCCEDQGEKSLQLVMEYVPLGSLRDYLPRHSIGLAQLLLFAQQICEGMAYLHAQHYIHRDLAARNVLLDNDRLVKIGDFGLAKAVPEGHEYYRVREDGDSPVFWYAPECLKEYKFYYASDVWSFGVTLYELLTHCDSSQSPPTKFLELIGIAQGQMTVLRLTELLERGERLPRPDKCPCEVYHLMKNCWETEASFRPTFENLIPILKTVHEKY
Procedure: as §1, §2

[4] = target: T4, catalytic kinase (JH1) domain of human JAK3 (Homo sapiens, UniProt P52333); test: ADP-Glo kinase assay, JAK3 kinase domain
T4 construct: Catalytic activities of recombinant JAK2, JAK3 and TYK2 kinase domain
T4 sequence (P52333 822-1111 limits assumed): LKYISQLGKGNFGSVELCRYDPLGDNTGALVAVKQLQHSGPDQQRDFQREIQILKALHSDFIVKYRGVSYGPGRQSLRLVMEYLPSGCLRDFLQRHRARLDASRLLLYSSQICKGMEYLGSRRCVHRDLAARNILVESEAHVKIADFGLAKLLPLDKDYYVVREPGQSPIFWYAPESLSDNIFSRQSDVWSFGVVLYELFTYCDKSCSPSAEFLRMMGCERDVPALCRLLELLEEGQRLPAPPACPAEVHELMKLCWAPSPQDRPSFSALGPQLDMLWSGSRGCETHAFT
Procedure: as §1, §2

[5] = 0.2 nM recombinant JAK2 kinase domain, 50 μM JAK3-974 peptide, 15 μM ATP, 100 minutes, read-out: JAK2 biochem IC50 (nM) Mean
[6] = 4 nM recombinant JAK1 kinase domain, 50 μM JAK3-342 peptide, 35 μM ATP, 100 minutes, read-out: JAK1 biochem IC50 (nM) Mean
[7] = 2 nM recombinant TYK2 kinase domain, 50 μM JAK3-974 peptide, 10 μM ATP, 100 minutes, read-out: TYK2 biochem IC50 (nM) Mean
[8] = 0.3 nM recombinant JAK3 kinase domain, 50 μM JAK3-974 peptide, 4 μM ATP, 100 minutes, read-out: JAK3 biochem IC50 (nM) Mean

T1 sequence (O60674 849-1124 limits assumed): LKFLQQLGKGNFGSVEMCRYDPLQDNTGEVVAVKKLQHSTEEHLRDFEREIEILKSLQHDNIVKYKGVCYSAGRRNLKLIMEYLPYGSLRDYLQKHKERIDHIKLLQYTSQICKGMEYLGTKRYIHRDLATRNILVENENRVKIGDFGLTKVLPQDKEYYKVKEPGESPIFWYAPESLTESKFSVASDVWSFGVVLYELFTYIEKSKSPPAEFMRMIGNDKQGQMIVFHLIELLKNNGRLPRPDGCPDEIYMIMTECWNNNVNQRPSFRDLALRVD

IC50 [1, 5] [nM] | IC50 [2, 6] [nM] | IC50 [3, 7] [nM] | IC50 [4, 8] [nM] | Compound | IC50 [1] [nM] | IC50 [2] [nM] | IC50 [3] [nM] | IC50 [4] [nM]
400 | 675 | 100 | 2400 | COC[C@]1(C#N)C[C@H](N2C3CCC2CN(c2ccnn4cc(-c5cnn(C)c5)cc24)C3)C1 [Example 42, (1s,3s)-1-(methoxymethyl)-3-(3-(6-(1-methyl-1H-pyrazol-4-yl)pyrrolo[1,2-b]pyridazin-4-yl)-3,8-diazabicyclo[3.2.1]octan-8-yl)cyclobutane-1-carbonitrile] |  |  |  | 
 |  |  |  | Cn1cc(-c2cc3c(N4CC5CCC(C4)N5[C@@H]4CCC45COC5)ccnn3c2)cn1 (single isomer, unassigned) [Example 41] | 420 | 2200 | 71 | 8450
3150 | 7100 | 830 | > 10000 | Cn1cc(-c2nc3c(N4CC5CCC(C4)N5[C@H]4CC[C@H]4O)ccnc3[nH]2)cn1 (racemic) [Example 8, (1RS,2SR)-2-(3-(2-(1-methyl-1H-pyrazol-4-yl)-3H-imidazo[4,5-b]pyridin-7-yl)-3,8-diazabicyclo[3.2.1]octan-8-yl)cyclobutan-1-ol] |  |  |  | 
180 | 340 | 226 | 1350 | Cn1cc(-c2nc3c(N4C[C@H]5CC[C@@H](C4)N5C4CC(C(F)F)C4)ccnc3[nH]2)cn1 (stereo partly drawn) [Example 10, 7-((1R,5S)-8-(3-(difluoromethyl)cyclobutyl)-3,8-diazabicyclo[3.2.1]octan-3-yl)-2-(1-methyl-1H-pyrazol-4-yl)-3H-imidazo[4,5-b]pyridine] |  |  |  | 
 |  |  |  | Cn1cc(-c2cc3c(N4CC5CCC(C4)N5[C@H]4C[C@@H](S(C)(=O)=O)C4)ccnn3c2)cn1 [Example 36, 6-(1-methyl-1H-pyrazol-4-yl)-4-(8-((1s,3s)-3-(methylsulfonyl)cyclobutyl)-3,8-diazabicyclo[3.2.1]octan-3-yl)pyrrolo[1,2-b]pyridazine] | 240 | 435 | 50.5 | 1700
 |  |  |  | N#CC1CC(N2C3CCC2CN(c2ccnn4cc(-c5ccnnc5)cc24)C3)C1 (centres unmarked) [Example 55, 3-(3-(6-(pyridazin-4-yl)pyrrolo[1,2-b]pyridazin-4-y1)-3,8-diazabicyclo[3.2.1]octan-8-yl)cyclobutane-1-carbonitrile] | 80.5 | 130 | 11.5 | 625
 |  |  |  | COc1cc(-c2cc3c(N4CC5CCC(C4)N5[C@H]4C[C@H](C#N)C4)ccnc3[nH]2)ccn1 [Example 15, (1R,3r)-3-(3-(2-(2-methoxypyridin-4-yl)-1H-pyrrolo[2,3-b]pyridin-4-yl)-3,8-diazabicyclo[3.2.1]octan-8-yl)cyclobutane-1-carbonitrile] | 15 | 13.7 | 2.13 | 74.3
39 | 73 | 3.7 | 260 | COC[C@]1(C#N)C[C@@H](N2C3CCC2CN(c2ccnn4cc(-c5cnn(C)c5)cc24)C3)C1 [Example 43, (1r,3r)-1-(methoxymethyl)-3-(3-(6-(1-methyl-1H-pyrazol-4-yl)pyrrolo[1,2-b]pyridazin-4-yl)-3,8-diazabicyclo[3.2.1]octan-8-yl)cyclobutane-1-carbonitrile] |  |  |  | 
 |  |  |  | Cn1cc(-c2cc3c(N4CC5CCC(C4)N5[C@H]4CCC45COC5)ccnn3c2)cn1 (single isomer, unassigned) [Example 40] | 1900 | > 10000 | 320 | > 10000
3300 | > 10000 | 610 | > 10000 | Cn1cc(-c2nc3c(N4CC5CCC(C4)N5[C@H]4CC[C@@H]4O)ccnc3[nH]2)cn1 (single isomer, unassigned) [Example 7, (1RS,2RS)-2-(3-(2-(1-methyl-1H-pyrazol-4-yl)-3H-imidazo[4,5-b]pyridin-7-yl)-3,8-diazabicyclo[3.2.1]octan-8-yl)cyclobutan-1-ol] |  |  |  | 
 |  |  |  | Cn1cc(-c2cc3c(N4CC5CCC(C4)N5[C@@H]4C[C@H](C#N)C4(C)C)ccnn3c2)cn1 (single isomer, unassigned) [Example 48] | 180 | 925 | 35 | 1350
